One molecule from ChEMBL document CHEMBL4706499, “PTG-0861: A novel HDAC6-selective inhibitor as a therapeutic strategy in acute myeloid leukaemia” (Eur J Med Chem, 2020) can be followed below.

The source made the active and inactive calls. No cut-off for these calls is given here. A value given as a limit tells only on which side of the number the result lay.

Series [1] can be described thus: AUC (last) in CD1 mouse at 20 mg/kg, ip measured after 24 hrs by LC/MS/MS method. It counts as ADME, organism-based. Also on record: route intraperitoneal, dose 20 mg/kg, time 24 hrs. The following applies: in vivo.
For series [2], the target named is Histone deacetylase 1 (Homo sapiens, UniProt Q13547). As to the kind of experiment: Inhibition of recombinant full length human HDAC1 expressed in SF9 baculovirus using FAM- labelled acetylated peptide as substrate measured by Electrophoretic mobility shift assay. In general terms: In EMSA bound probe runs differently from free probe, usually more slowly.
In series [3] the test system is MV4-11. Briefly: Induction of apoptosis in human MV4-11 cells assessed as viable cells at 4 microM measured after 18 hrs by Annexin V/Propidium iodide stain based Flow cytometry assay (reference value: 53.27%). It is filed as functional. The following applies: read-out: Activity.
Series [4] has as its system MV4-11. Briefly: Induction of apoptosis in human MV4-11 cells assessed as viable cells at 1 microM measured after 18 hrs by Annexin V/Propidium iodide stain based Flow cytometry assay (reference value: 53.27%). The following applies: read-out: Activity. It is filed as functional. On the technique in general: In flow cytometry, cells or beads pass a laser one at a time.

Series [5] deals with T1, Histone deacetylase 6 (Danio rerio, UniProt F8W4B7).
T1 sequence (F8W4B7 whole entry): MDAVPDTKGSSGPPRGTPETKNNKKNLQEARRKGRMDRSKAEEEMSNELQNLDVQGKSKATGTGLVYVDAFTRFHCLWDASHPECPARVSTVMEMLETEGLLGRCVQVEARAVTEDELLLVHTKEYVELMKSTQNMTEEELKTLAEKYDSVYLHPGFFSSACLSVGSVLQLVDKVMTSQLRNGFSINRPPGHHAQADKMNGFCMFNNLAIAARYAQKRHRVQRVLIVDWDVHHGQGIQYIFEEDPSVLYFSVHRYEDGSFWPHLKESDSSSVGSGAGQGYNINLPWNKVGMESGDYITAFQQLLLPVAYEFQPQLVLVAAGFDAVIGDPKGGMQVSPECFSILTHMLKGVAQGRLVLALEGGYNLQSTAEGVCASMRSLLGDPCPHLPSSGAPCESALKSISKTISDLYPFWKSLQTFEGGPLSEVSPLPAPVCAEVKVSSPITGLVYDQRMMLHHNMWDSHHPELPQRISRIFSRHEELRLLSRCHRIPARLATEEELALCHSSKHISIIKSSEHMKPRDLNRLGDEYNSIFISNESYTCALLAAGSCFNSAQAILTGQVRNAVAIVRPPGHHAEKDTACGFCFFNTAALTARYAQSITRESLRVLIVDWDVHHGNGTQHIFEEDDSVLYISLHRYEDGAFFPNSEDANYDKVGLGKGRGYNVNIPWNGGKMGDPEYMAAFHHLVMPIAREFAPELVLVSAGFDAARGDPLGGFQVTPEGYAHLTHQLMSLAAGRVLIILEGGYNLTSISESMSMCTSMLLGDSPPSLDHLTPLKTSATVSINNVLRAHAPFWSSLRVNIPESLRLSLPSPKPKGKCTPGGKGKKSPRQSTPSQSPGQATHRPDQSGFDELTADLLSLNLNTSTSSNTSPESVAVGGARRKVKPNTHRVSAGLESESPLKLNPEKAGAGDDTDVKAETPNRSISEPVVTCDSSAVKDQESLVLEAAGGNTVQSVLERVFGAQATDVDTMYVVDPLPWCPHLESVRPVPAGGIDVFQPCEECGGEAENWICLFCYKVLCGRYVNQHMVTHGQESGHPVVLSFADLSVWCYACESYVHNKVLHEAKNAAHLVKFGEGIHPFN
Briefly: Inhibition of N-terminal 6 His-SUMO tagged Zebrafish HDAC6 CD2 domain expressed in Escherichia coli BL21(DE3) RILP pretreated for 10 mins before FITC-M344 addition and measured after 10 mins by fluorescence polarization competition assay. On the technique in general: Fluorescence polarisation rises when a labelled molecule tumbles more slowly, as on binding a larger partner.

Series [6] has as its target T2, Protein deacetylase HDAC6 (Homo sapiens) (UniProt Q9UBN7).
T2 sequence (whole entry): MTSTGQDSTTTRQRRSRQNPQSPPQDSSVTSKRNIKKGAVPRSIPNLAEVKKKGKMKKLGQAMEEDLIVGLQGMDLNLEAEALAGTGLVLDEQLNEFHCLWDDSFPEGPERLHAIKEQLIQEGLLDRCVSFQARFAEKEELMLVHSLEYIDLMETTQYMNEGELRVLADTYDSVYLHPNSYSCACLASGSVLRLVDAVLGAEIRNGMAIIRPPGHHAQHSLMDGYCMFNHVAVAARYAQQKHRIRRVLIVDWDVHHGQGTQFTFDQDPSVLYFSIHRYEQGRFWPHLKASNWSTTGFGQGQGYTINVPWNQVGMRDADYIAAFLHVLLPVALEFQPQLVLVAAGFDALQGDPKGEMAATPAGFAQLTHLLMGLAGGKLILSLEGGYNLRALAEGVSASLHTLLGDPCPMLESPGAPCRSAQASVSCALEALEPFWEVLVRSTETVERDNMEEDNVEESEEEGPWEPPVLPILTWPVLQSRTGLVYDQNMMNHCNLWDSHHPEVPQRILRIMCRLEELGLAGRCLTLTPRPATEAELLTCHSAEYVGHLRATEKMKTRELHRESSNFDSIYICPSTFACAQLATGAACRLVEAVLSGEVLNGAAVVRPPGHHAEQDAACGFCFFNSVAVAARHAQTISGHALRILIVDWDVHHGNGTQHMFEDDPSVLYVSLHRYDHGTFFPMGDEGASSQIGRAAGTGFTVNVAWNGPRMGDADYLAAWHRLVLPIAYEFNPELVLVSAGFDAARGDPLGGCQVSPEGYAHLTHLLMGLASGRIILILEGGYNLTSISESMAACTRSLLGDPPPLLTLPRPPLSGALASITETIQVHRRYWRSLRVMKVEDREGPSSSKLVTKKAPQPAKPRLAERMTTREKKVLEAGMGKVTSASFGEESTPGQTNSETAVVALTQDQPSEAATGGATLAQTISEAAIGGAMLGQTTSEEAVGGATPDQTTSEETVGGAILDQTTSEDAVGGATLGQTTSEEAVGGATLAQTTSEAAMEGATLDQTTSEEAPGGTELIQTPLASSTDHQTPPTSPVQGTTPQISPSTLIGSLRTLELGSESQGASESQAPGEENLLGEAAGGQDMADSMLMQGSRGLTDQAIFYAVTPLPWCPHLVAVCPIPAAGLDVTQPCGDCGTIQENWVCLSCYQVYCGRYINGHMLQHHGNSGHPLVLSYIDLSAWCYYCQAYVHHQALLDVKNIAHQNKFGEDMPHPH
As to the kind of experiment: Inhibition of HDAC6 in human HeLa cells assessed as increase in acetylated alpha tubulin at 0.1 uM measured after 6 hrs by Immunofluorescent assay.

The nature of series [7]: Intrinsic clearance in mouse hepatocytes assessed per 10^6 cells measured after 120 mins by LC/MS/MS method. As to conditions: read-out: CLH. It is filed as ADME, cell-based, Hepatocyte.
The nature of series [8]: Cytotoxicity against human MRC9 cells measured after 72 hrs by spectrophotometer method. It counts as cell-based. As to conditions: MRC9, 72 h.
Series [9] can be described thus: Cmax in CD1 mouse at 20 mg/kg, ip measured after 24 hrs by LC/MS/MS method. It counts as ADME, organism-based. Details: route intraperitoneal, dose 20 mg/kg, time 24 hrs. The following applies: in vivo.
The nature of series [10]: AUC (infinity) in CD1 mouse at 20 mg/kg, ip measured after 24 hrs by LC/MS/MS method. It counts as ADME, organism-based. Also on record: route intraperitoneal, dose 20 mg/kg, time 24 hrs. The following applies: in vivo.
The nature of series [11]: Toxicity in CD-1 mouse assessed as visible signs of toxicity at 20 mg/kg, po measured after 5 days. It counts as organism-based. The following applies: in vivo, 120 h, time 5 day.

Chain of Histone deacetylase 1 (Q13547 whole entry): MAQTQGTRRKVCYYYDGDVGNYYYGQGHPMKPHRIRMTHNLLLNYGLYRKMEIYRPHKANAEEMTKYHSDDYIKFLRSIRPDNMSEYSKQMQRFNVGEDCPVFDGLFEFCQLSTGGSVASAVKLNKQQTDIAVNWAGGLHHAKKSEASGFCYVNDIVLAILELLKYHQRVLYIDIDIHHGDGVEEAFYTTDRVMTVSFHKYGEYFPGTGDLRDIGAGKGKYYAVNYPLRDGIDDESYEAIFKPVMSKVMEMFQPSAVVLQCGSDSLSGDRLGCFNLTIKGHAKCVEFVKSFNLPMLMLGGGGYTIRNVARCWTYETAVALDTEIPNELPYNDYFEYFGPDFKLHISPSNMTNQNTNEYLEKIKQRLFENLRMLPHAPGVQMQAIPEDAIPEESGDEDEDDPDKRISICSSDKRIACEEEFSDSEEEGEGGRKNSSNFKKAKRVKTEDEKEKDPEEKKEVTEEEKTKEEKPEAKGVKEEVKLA

A word on the AUC(0-t): it is exposure summed from dosing to a finite time, without extrapolation to infinity. Read a high AUC(0-t) as more exposure. The term IC50 denotes the midpoint of a concentration-inhibition curve. The Cmax is the maximum level reached in the sampled fluid or tissue. By AUC(0-inf) is commonly meant the area under the concentration-time curve extrapolated to infinity. As for `O=C(NO)c1ccc(CNC(=O)c2c(F)c(F)c(F)c(F)c2F)cc1`, the AUC(0-t) at 24 h in series [1] came to 190 ng·h/mL. Also, the IC50 was over 1000 nM in series [2], 74 nM in series [5] and over 50000 nM in series [8]. The viability at 4 µM in series [3] came out at 17.9%. Besides, in [4], the viability at 1 µM came out at 35.6%. Moreover, in series [6], the inhibition result was “Active”. Besides, the hepatocyte CLint in series [7] stood at 27.3 µL/min/1e6 cells. Moreover, the Cmax in [9] turned out to be 526 ng/mL. Moreover, the AUC(0-inf) in series [10] was 219 ng·h/mL. For the same molecule, the Activity entry in series [11] is “Non-Toxic”.
